target: T1, hITK enzyme (FLAG-tagged full-length hITK) (Homo sapiens, UniProt Q08881); experiment: ITK inhibitory activity (HTRF kinase assay, biotinylated GST-SLP76 substrate); type: biochemical; settings: IC50 calculated from the 2 test compound concentrations sandwiching 50% ITK inhibitory rate
T1 construct: strongly expressing FLAG-tagged full-length hITK in Sf9 cells; FLAG; made in house; host or cells: Sf9 insect cells (ITK); Escherichia coli (GST-SLP76 substrate)
T1 sequence (Q08881 1-620): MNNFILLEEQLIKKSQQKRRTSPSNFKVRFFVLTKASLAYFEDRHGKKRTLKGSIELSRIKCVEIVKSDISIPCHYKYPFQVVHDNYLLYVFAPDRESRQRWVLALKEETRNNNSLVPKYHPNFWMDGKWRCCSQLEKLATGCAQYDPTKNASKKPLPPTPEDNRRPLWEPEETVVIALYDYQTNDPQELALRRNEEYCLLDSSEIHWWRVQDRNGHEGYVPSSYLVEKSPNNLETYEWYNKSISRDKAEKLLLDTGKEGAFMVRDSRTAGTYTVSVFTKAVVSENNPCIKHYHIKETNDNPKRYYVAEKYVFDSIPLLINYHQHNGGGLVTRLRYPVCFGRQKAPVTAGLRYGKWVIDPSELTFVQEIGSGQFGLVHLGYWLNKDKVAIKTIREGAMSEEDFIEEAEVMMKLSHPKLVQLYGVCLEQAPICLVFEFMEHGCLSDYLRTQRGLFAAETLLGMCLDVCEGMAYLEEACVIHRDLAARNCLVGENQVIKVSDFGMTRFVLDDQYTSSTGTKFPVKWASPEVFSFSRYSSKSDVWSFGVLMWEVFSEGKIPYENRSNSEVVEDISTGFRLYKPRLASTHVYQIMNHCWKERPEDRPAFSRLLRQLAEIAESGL
Protocol: (1) Preparation of hITK Enzyme
hITK enzyme was prepared by strongly expressing FLAG-tagged full-length hITK in Sf9 cells, and purifying same by anti-FLAG antibody column.
(2) Preparation of biotinylated GST-SLP76
Biotinylated GST-SLP76 was prepared by strongly expressing GST-tagged SLP76 (aa95-175) in Escherichia coli, purifying same by glutathion sepharose column and biotinylating same.
(3) Preparation of Solution
(i) buffer for dilution: 20 mmol/L 3-(N-morpholino)propanesulfonic acid (pH 7.0) (DOJINDO LABORATORIES), 10 mmol/L magnesium chloride (Sigma-Aldrich Corporation), 1 mmol/L dithiothreitol (Nacalai Tesque, Inc.), 0.1% gelatin (Sigma-Aldrich Corporation)
(ii) substrate solution: 0.2 μg/mL biotinylated GST-SLP76, 100 μmol/L ATP (Sigma-Aldrich Corporation), prepared with buffer for dilution
(iii) test compound solution: test compound, 50% dimethyl sulfoxide (DMSO), prepared with buffer for dilution
(iv) enzyme solution: 50 ng/mL hITK enzyme, prepared with buffer for dilution
(v) control solution: solution after removal of test compound from the mixture of the above-mentioned (i), (ii) and (iii)
(vi) blank solution: solution after removal of ATP from the mixture of the above-mentioned (i), (ii) and (iii)
(vii) detection buffer: 0.1 μg/mL Anti-Phosphotyrosine (PT66)-Cryptate (Cisbio), 2.5 μg/mL streptavidin-binding XL665 (Cisbio), 50 mmol/L 4-(2-hydroxyethyl)-1-piperazineethanesulfonic acid (pH 7.4) (Nacalai Tesque, Inc.), 30 mmol/L EDTA (NipponGene), 0.1% TritonX (Sigma-Aldrich Corporation), 200 mmol/L potassium fluoride (Wako Pure Chemical Industries, Ltd.), 0.05% bovine serum albumin (Sigma-Aldrich Corporation) (4) Measurement of ITK Inhibitory Activity
A substrate solution (25 μL/well), a test compound solution (5 μL/well) and an enzyme solution (20 μL/well) were added into 96 well half-area white plate (plate, Corning Incorporated 3642) to start a kinase reaction. The plate was stood still at room temperature for 10 min. Then, a detection buffer (50 μL/well) was added to the plate. After 2 hr from the addition of the detection buffer, fluorescence intensity at 620 nm (excited at 337 nm), and fluorescence intensity at 665 nm ([…]) were measured by a fluorescence microplate reader.
The Ratio (fluorescence intensity at 665 nm/fluorescence intensity at 620 nm×10000) of each test compound was calculated from the measured fluorescence intensity. Simultaneously, the measurement was performed using a blank solution and a control solution, and % of control value of each test compound was calculated from the following formula. % of control=(Ratio of test compound−Ratio of blank)/(Ratio of control−Ratio of blank)×100 ITK inhibitory rate (%)=100−(% of control)
The IC50 value was calculated from the test compound concentrations at 2 points sandwiching 50% ITK inhibitory rate.
In the test for the compounds of Examples 380 and 381, the ATP concentration of the substrate solutions was 6 μmol/L.

| SMILES | IC50 |
| --- | --- |
| CN(c1ccc2cc(-c3n[nH]c4c3CCC(C)(C)C4)[nH]c2c1)C(=O)[C@H]1CC[C@H](O)CC1 [Example 101] | 13 nM |
| CN(C(=O)OC1CCCCC1)c1ccc2cc(-c3n[nH]c4c3CCC(C)(C)C4)[nH]c2c1 [Example 102] | 117 nM |
| CN(C(=O)CC1CCCOC1)c1ccc2cc(-c3n[nH]c4c3CCC(C)(C)C4)[nH]c2c1 (centres unmarked) [Example 103] | 3 nM |
| CC(C(=O)N(C)c1ccc2cc(-c3n[nH]c4c3CCC(C)(C)C4)[nH]c2c1)N1CCOCC1 (centres unmarked) [Example 104] | 4 nM |
| CN(C(=O)CN1CCCCC1=O)c1ccc2cc(-c3n[nH]c4c3CCC(C)(C)C4)[nH]c2c1 [Example 105] | 2 nM |
| CN(C(=O)C1CC(=O)OC1(C)C)c1ccc2cc(-c3n[nH]c4c3CCC(C)(C)C4)[nH]c2c1 (centres unmarked) [Example 106] | 7 nM |
| CN(C(=O)CN1CCC(O)CC1)c1ccc2cc(-c3n[nH]c4c3CCC(C)(C)C4)[nH]c2c1 [Example 107] | 10 nM |
| CC(C(=O)N(C)c1ccc2cc(-c3n[nH]c4c3CCC(C)(C)C4)[nH]c2c1)N1CCC(O)CC1 (centres unmarked) [Example 108] | 15 nM |
| CN(C(=O)CN1CCC[C@H](O)C1)c1ccc2cc(-c3n[nH]c4c3CCC(C)(C)C4)[nH]c2c1 [Example 109] | 6 nM |
| CN(C(=O)CN1CCC[C@@H](O)C1)c1ccc2cc(-c3n[nH]c4c3CCC(C)(C)C4)[nH]c2c1 [Example 110] | 7 nM |
| CC(C(=O)N(C)c1ccc2cc(-c3n[nH]c4c3CCC(C)(C)C4)[nH]c2c1)N1CCC[C@H](O)C1 (some centres unmarked) [Example 111] | 9 nM |
| CC(C(=O)N(C)c1ccc2cc(-c3n[nH]c4c3CCC(C)(C)C4)[nH]c2c1)N1CCC[C@@H](O)C1 (some centres unmarked) [Example 112] | 7 nM |
| COC1CCN(C(C)C(=O)N(C)c2ccc3cc(-c4n[nH]c5c4CCC(C)(C)C5)[nH]c3c2)CC1 (centres unmarked) [Example 113] | 9 nM |
| CO[C@H]1CCCN(CC(=O)N(C)c2ccc3cc(-c4n[nH]c5c4CCC(C)(C)C5)[nH]c3c2)C1 [Example 114] | 5 nM |
| CO[C@@H]1CCCN(CC(=O)N(C)c2ccc3cc(-c4n[nH]c5c4CCC(C)(C)C5)[nH]c3c2)C1 [Example 115] | 4 nM |
| CO[C@H]1CCCN(C(C)C(=O)N(C)c2ccc3cc(-c4n[nH]c5c4CCC(C)(C)C5)[nH]c3c2)C1 (some centres unmarked) [Example 116] | 9 nM |
| CO[C@@H]1CCCN(C(C)C(=O)N(C)c2ccc3cc(-c4n[nH]c5c4CCC(C)(C)C5)[nH]c3c2)C1 (some centres unmarked) [Example 117] | 6 nM |
| CC1CN(CC(=O)N(C)c2ccc3cc(-c4n[nH]c5c4CCC(C)(C)C5)[nH]c3c2)CC(C)O1 (centres unmarked) [Example 118] | 3 nM |
| C[C@@H]1CN(CC(=O)N(C)c2ccc3cc(-c4n[nH]c5c4CCC(C)(C)C5)[nH]c3c2)C[C@H](C)O1 [Example 119] | 3 nM |
| CC1CN(C(C)C(=O)N(C)c2ccc3cc(-c4n[nH]c5c4CCC(C)(C)C5)[nH]c3c2)CC(C)O1 (centres unmarked) [Example 120] | 5 nM |
| CC(C(=O)N(C)c1ccc2cc(-c3n[nH]c4c3CCC(C)(C)C4)[nH]c2c1)N1C[C@@H](C)O[C@@H](C)C1 (some centres unmarked) [Example 121] | 5 nM |
| CC(C(=O)N(C)c1ccc2cc(-c3n[nH]c4c3CCC(C)(C)C4)[nH]c2c1)N1CCCCC1 (centres unmarked) [Example 122] | 20 nM |
| CN(C(=O)COC1CCCOC1)c1ccc2cc(-c3n[nH]c4c3CCC(C)(C)C4)[nH]c2c1 (centres unmarked) [Example 123] | 2 nM |
| CN(C(=O)C1CCCCC1)c1ccc2cc(-c3n[nH]c4c3CCC(C)(C)C4)[nH]c2c1 [Example 124] | 12 nM |
| CCC(=O)N(C)CC(=O)N(C)c1ccc2cc(-c3n[nH]c4c3CCC(C)(C)C4)[nH]c2c1 [Example 125] | 1 nM |

| SMILES | IC50 |
| --- | --- |
| CNCC(=O)N(C)c1ccc2cc(-c3n[nH]c4c3CCC(C)(C)C4)[nH]c2c1 [Example 126] | 8 nM |
| CN(C(=O)CN1CCCCCC1=O)c1ccc2cc(-c3n[nH]c4c3CCC(C)(C)C4)[nH]c2c1 [Example 127] | 1 nM |
| CN(C(=O)C1CCC(=O)N1)c1ccc2cc(-c3n[nH]c4c3CCC(C)(C)C4)[nH]c2c1 (centres unmarked) [Example 128] | 2 nM |
| CCC(C(=O)N(C)c1ccc2cc(-c3n[nH]c4c3CCC(C)(C)C4)[nH]c2c1)N1CCOCC1 (centres unmarked) [Example 129] | 5 nM |
| CC1COCC(=O)N1CC(=O)N(C)c1ccc2cc(-c3n[nH]c4c3CCC(C)(C)C4)[nH]c2c1 (centres unmarked) [Example 130] | 2 nM |
| CN(C(=O)C(O)COC1CCCC1)c1ccc2cc(-c3n[nH]c4c3CCC(C)(C)C4)[nH]c2c1 (centres unmarked) [Example 131] | 25 nM |
| CC(C)OCC(O)C(=O)N(C)c1ccc2cc(-c3n[nH]c4c3CCC(C)(C)C4)[nH]c2c1 (centres unmarked) [Example 132] | 13 nM |
| CC(C(=O)N(C)c1ccc2cc(-c3n[nH]c4c3CCC(C)(C)C4)[nH]c2c1)N1CCCCC1=O (centres unmarked) [Example 133] | 10 nM |
| CC(C(=O)N(C)c1ccc2cc(-c3n[nH]c4c3CCC(C)(C)C4)[nH]c2c1)N1CCCC1=O (centres unmarked) [Example 134] | 8 nM |
| C[C@H](C(=O)N(C)c1ccc2cc(-c3n[nH]c4c3CCC(C)(C)C4)[nH]c2c1)N1CCOCC1 [Example 135] | 6 nM |
| CC1CCC(=O)N1CC(=O)N(C)c1ccc2cc(-c3n[nH]c4c3CCC(C)(C)C4)[nH]c2c1 (centres unmarked) [Example 136] | 2 nM |
| CC1CCCC(=O)N1CC(=O)N(C)c1ccc2cc(-c3n[nH]c4c3CCC(C)(C)C4)[nH]c2c1 (centres unmarked) [Example 137] | 2 nM |
| CN(C(=O)CN1CCCS1(=O)=O)c1ccc2cc(-c3n[nH]c4c3CCC(C)(C)C4)[nH]c2c1 [Example 138] | 3 nM |
| CN(C(=O)[C@@H]1CCCO1)c1ccc2cc(-c3n[nH]c4c3CCC(C)(C)C4)[nH]c2c1 [Example 139] | 2 nM |
| CN(C(=O)[C@H]1CCCO1)c1ccc2cc(-c3n[nH]c4c3CCC(C)(C)C4)[nH]c2c1 [Example 140] | 2 nM |
| CN(C(=O)CCN1CCCCC1=O)c1ccc2cc(-c3n[nH]c4c3CCC(C)(C)C4)[nH]c2c1 [Example 141] | 10 nM |
| CN(C(=O)CC1CCC(=O)N1C)c1ccc2cc(-c3n[nH]c4c3CCC(C)(C)C4)[nH]c2c1 (centres unmarked) [Example 142] | 5 nM |
| CN(C(=O)CC1CCC(=O)N1)c1ccc2cc(-c3n[nH]c4c3CCC(C)(C)C4)[nH]c2c1 (centres unmarked) [Example 143] | 3 nM |
| CN(C(=O)CCN1CCCC1=O)c1ccc2cc(-c3n[nH]c4c3CCC(C)(C)C4)[nH]c2c1 [Example 144] | 9 nM |
| CC1COCCN1CC(=O)N(C)c1ccc2cc(-c3n[nH]c4c3CCC(C)(C)C4)[nH]c2c1 (centres unmarked) [Example 145] | 3 nM |
| CC1COCCN1C(C)C(=O)N(C)c1ccc2cc(-c3n[nH]c4c3CCC(C)(C)C4)[nH]c2c1 (centres unmarked) [Example 146] | 11 nM |
| CC(C(=O)N(C)c1ccc2cc(-c3n[nH]c4c3CCC(C)(C)C4)[nH]c2c1)N1CCOCC1=O (centres unmarked) [Example 147] | 8 nM |
| CN(C(=O)[C@@H]1CCCN1C)c1ccc2cc(-c3n[nH]c4c3CCC(C)(C)C4)[nH]c2c1 [Example 148] | 19 nM |
| CN(C(=O)[C@H]1CCCN1C)c1ccc2cc(-c3n[nH]c4c3CCC(C)(C)C4)[nH]c2c1 [Example 149] | 10 nM |
| CN(C(=O)[C@H]1CCC(=O)N1C)c1ccc2cc(-c3n[nH]c4c3CCC(C)(C)C4)[nH]c2c1 [Example 150] | 2 nM |

Source: patent publication US8299070B2, “Indole compounds and pharmaceutical use thereof” (Japan Tobacco Inc., priority 2009, dated 2012)
